# Assay results from PubChem BioAssay (NCI).
#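 Compound exposure: 48 hours, 5 concentrations, 96-well plates. GI50 marks 50% less growth. At the TGI there is no net growth.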
# Tests used:
# Assay in all cases: DTP human tumour cell line panel, 48 h
# 786-0 renal = system: 786-0 renal
# A498 renal = system: A498 renal
# A549 NSCLC = system: A549 NSCLC
# ACHN renal = system: ACHN renal
# BT-549 breast = system: BT-549 breast
# CAKI-1 renal = system: CAKI-1 renal
# CCRF-CEM leukemia = system: CCRF-CEM leukemia
# COLO 205 colon = system: COLO 205 colon
# DU-145 prostate = system: DU-145 prostate
# EKVX NSCLC = system: EKVX NSCLC
# HCC-2998 colon = system: HCC-2998 colon
# HCT-116 colon = system: HCT-116 colon
# HCT-15 colon = system: HCT-15 colon
# HL-60(TB) leukemia = system: HL-60(TB) leukemia
# HOP-62 NSCLC = system: HOP-62 NSCLC
# HOP-92 NSCLC = system: HOP-92 NSCLC
# HS 578T breast = system: HS 578T breast
# HT29 colon = system: HT29 colon
# IGROV1 ovarian = system: IGROV1 ovarian
# K-562 leukemia = system: K-562 leukemia
# KM12 colon = system: KM12 colon
# LOX IMVI melanoma = system: LOX IMVI melanoma
# M14 melanoma = system: M14 melanoma
# MALME-3M melanoma = system: MALME-3M melanoma
# MCF7 breast = system: MCF7 breast
# MDA-MB-231 breast = system: MDA-MB-231 breast
# MDA-MB-435 = system: MDA-MB-435
# MOLT-4 leukemia = system: MOLT-4 leukemia
# NCI-H226 lung = system: NCI-H226 lung
# NCI-H23 lung = system: NCI-H23 lung
# NCI-H460 lung = system: NCI-H460 lung
# NCI-H522 lung = system: NCI-H522 lung
# NCI/ADR-RES ovarian = system: NCI/ADR-RES ovarian
# OVCAR-4 ovarian = system: OVCAR-4 ovarian
# OVCAR-5 ovarian = system: OVCAR-5 ovarian
# OVCAR-8 ovarian = system: OVCAR-8 ovarian
# PC-3 prostate = system: PC-3 prostate
# RPMI-8226 leukemia = system: RPMI-8226 leukemia
# RXF 393 renal = system: RXF 393 renal
# SF-268 CNS = system: SF-268 CNS
# SF-295 CNS = system: SF-295 CNS
# SF-539 CNS = system: SF-539 CNS
# SK-MEL-28 melanoma = system: SK-MEL-28 melanoma
# SK-MEL-5 melanoma = system: SK-MEL-5 melanoma
# SK-OV-3 ovarian = system: SK-OV-3 ovarian
# SN12C renal = system: SN12C renal
# SNB-19 CNS = system: SNB-19 CNS
# SNB-75 CNS = system: SNB-75 CNS
# SR leukemia = system: SR leukemia
# SW-620 colon = system: SW-620 colon
# T-47D breast = system: T-47D breast
# TK-10 renal = system: TK-10 renal
# U251 CNS = system: U251 CNS
# UACC-257 melanoma = system: UACC-257 melanoma
# UACC-62 melanoma = system: UACC-62 melanoma
# UO-31 renal = system: UO-31 renal
smiles,measurement,setting,value
COc1ccc(/C=N\NC(=O)c2ccc3nc(-c4ccc(Br)cc4)[nH]c3c2)cc1,GI50,786-0 renal,2.05 µM
same,TGI,786-0 renal,4.2 µM
same,GI50,A498 renal,2.26 µM
same,TGI,A498 renal,5.25 µM
same,GI50,A549 NSCLC,2.42 µM
same,TGI,A549 NSCLC,6.03 µM
same,GI50,ACHN renal,2.27 µM
same,TGI,ACHN renal,6.22 µM
same,GI50,BT-549 breast,2.64 µM
same,TGI,BT-549 breast,7.06 µM
same,GI50,CAKI-1 renal,2.31 µM
same,TGI,CAKI-1 renal,6.67 µM
same,GI50,CCRF-CEM leukemia,6.91 µM
same,TGI,CCRF-CEM leukemia,> 100 µM
same,GI50,COLO 205 colon,1.94 µM
same,TGI,COLO 205 colon,5.36 µM
same,GI50,DU-145 prostate,3.07 µM
same,TGI,DU-145 prostate,9.39 µM
same,GI50,EKVX NSCLC,2.22 µM
same,TGI,EKVX NSCLC,5.27 µM
same,GI50,HCC-2998 colon,3.06 µM
same,TGI,HCC-2998 colon,9.13 µM
same,GI50,HCT-116 colon,2.65 µM
same,TGI,HCT-116 colon,6.07 µM
same,GI50,HCT-15 colon,3.7 µM
same,TGI,HCT-15 colon,22.9 µM
same,GI50,HL-60(TB) leukemia,36.6 µM
same,TGI,HL-60(TB) leukemia,> 100 µM
same,GI50,HOP-62 NSCLC,1.87 µM
same,TGI,HOP-62 NSCLC,4.21 µM
same,GI50,HOP-92 NSCLC,1.9 µM
same,TGI,HOP-92 NSCLC,4.65 µM
same,GI50,HS 578T breast,2.34 µM
same,TGI,HS 578T breast,5.47 µM
same,GI50,HT29 colon,1.7 µM
same,TGI,HT29 colon,3.3 µM
same,GI50,IGROV1 ovarian,2.22 µM
same,TGI,IGROV1 ovarian,7.24 µM
same,GI50,K-562 leukemia,2.89 µM
same,TGI,K-562 leukemia,10.4 µM
same,GI50,KM12 colon,3.19 µM
same,TGI,KM12 colon,12.8 µM
same,GI50,LOX IMVI melanoma,1.93 µM
same,TGI,LOX IMVI melanoma,4.17 µM
same,GI50,M14 melanoma,2.63 µM
same,TGI,M14 melanoma,7.47 µM
same,GI50,MALME-3M melanoma,1.76 µM
same,TGI,MALME-3M melanoma,3.79 µM
same,GI50,MCF7 breast,1.92 µM
same,TGI,MCF7 breast,5.81 µM
same,GI50,MDA-MB-231 breast,2.43 µM
same,TGI,MDA-MB-231 breast,5.93 µM
same,GI50,MDA-MB-435,2.91 µM
same,TGI,MDA-MB-435,8.11 µM
same,GI50,MOLT-4 leukemia,4.3 µM
same,TGI,MOLT-4 leukemia,> 100 µM
same,GI50,NCI-H226 lung,2.65 µM
same,TGI,NCI-H226 lung,16.8 µM
same,GI50,NCI-H23 lung,2.43 µM
same,TGI,NCI-H23 lung,6.05 µM
same,GI50,NCI-H460 lung,1.74 µM
same,TGI,NCI-H460 lung,3.37 µM
same,GI50,NCI-H522 lung,2.59 µM
same,TGI,NCI-H522 lung,11.2 µM
same,GI50,NCI/ADR-RES ovarian,17.8 µM
same,TGI,NCI/ADR-RES ovarian,> 100 µM
same,GI50,OVCAR-4 ovarian,2.14 µM
same,TGI,OVCAR-4 ovarian,5.16 µM
same,GI50,OVCAR-5 ovarian,2.68 µM
same,TGI,OVCAR-5 ovarian,7.27 µM
same,GI50,OVCAR-8 ovarian,2.2 µM
same,TGI,OVCAR-8 ovarian,5.16 µM
same,GI50,PC-3 prostate,1.79 µM
same,TGI,PC-3 prostate,3.72 µM
same,GI50,RPMI-8226 leukemia,2.12 µM
same,TGI,RPMI-8226 leukemia,8.38 µM
same,GI50,RXF 393 renal,1.62 µM
same,TGI,RXF 393 renal,3.49 µM
same,GI50,SF-268 CNS,2.31 µM
same,TGI,SF-268 CNS,5.93 µM
same,GI50,SF-295 CNS,1.99 µM
same,TGI,SF-295 CNS,4.27 µM
same,GI50,SF-539 CNS,1.76 µM
same,TGI,SF-539 CNS,3.47 µM
same,GI50,SK-MEL-28 melanoma,1.98 µM
same,TGI,SK-MEL-28 melanoma,4.1 µM
same,GI50,SK-MEL-5 melanoma,2.03 µM
same,TGI,SK-MEL-5 melanoma,4.38 µM
same,GI50,SK-OV-3 ovarian,2.37 µM
same,TGI,SK-OV-3 ovarian,15.5 µM
same,GI50,SN12C renal,2.4 µM
same,TGI,SN12C renal,5.94 µM
same,GI50,SNB-19 CNS,2.81 µM
same,TGI,SNB-19 CNS,7.39 µM
same,GI50,SNB-75 CNS,1.93 µM
same,TGI,SNB-75 CNS,4.69 µM
same,GI50,SR leukemia,2.1 µM
same,TGI,SR leukemia,6.28 µM
same,GI50,SW-620 colon,2.17 µM
same,TGI,SW-620 colon,4.64 µM
same,GI50,T-47D breast,1.85 µM
same,TGI,T-47D breast,4.31 µM
same,GI50,TK-10 renal,2.38 µM
same,TGI,TK-10 renal,5.06 µM
same,GI50,U251 CNS,1.94 µM
same,TGI,U251 CNS,3.55 µM
same,GI50,UACC-257 melanoma,2.14 µM
same,TGI,UACC-257 melanoma,4.78 µM
same,GI50,UACC-62 melanoma,2.51 µM
same,TGI,UACC-62 melanoma,7.2 µM
same,GI50,UO-31 renal,1.7 µM
same,TGI,UO-31 renal,5.44 µM
